# Measurements from ChEMBL document CHEMBL4806963, “Antagonistic peptides for frizzled-1 and frizzled-2” (2013).
# Calls of active or inactive are those of the source. No cut-off for these calls is given here. Where a SMILES comes first, the peptide text is derived from it.
# Tests used:
# [1] = molecular target: Frizzled-1 (Rattus norvegicus) (UniProt Q08463); assay: Antagonist activity at Wnt3a-stimulated rat frizzled-1 expressed in CHO cells up to 10 uM incubated for 24 hrs by luciferase reporter gene assay; format: cell-based; settings: dose microM <=10, time 24.0 hrs
# [2] = molecular target: Frizzled-2 (Rattus norvegicus) (UniProt Q08464); assay: Antagonist activity at Wnt3a-stimulated rat frizzled-2 expressed in […] cells up to 10 uM incubated for 24 hrs by luciferase reporter gene assay; format: cell-based; settings: dose microM <=10, time 24.0 hrs
# [3] = molecular target: Frizzled-1 (Rattus norvegicus) (UniProt Q08463); assay: Antagonist activity at Wnt3a-stimulated rat frizzled-1 expressed in African green monkey COS7 cells up to 10 uM incubated for 24 hrs by luciferase reporter gene assay; format: cell-based; settings: dose microM <=10, time 24.0 hrs
# [4] = molecular target: Frizzled-2 (Rattus norvegicus) (UniProt Q08464); assay: Antagonist activity at Wnt3a-stimulated rat frizzled-2 expressed in African green monkey COS7 cells up to 10 uM incubated for 24 hrs by luciferase reporter gene assay; format: cell-based; settings: dose microM <=10, time 24.0 hrs
# [5] = molecular target: Frizzled-1 (Homo sapiens) (UniProt Q9UP38); assay: Antagonist activity at Wnt3a-stimulaed frizzled-1 (unknown origin) expressed in human HEK293superTOP flash cells at 1 nM incubated for 24 hrs by luciferase reporter gene assay (reference value: 0%); format: functional, cell-based; settings: HEK293, filed as antagonist
# [6] = molecular target: Frizzled-2 (Homo sapiens) (UniProt Q14332); assay: Antagonist activity at Wnt3a-stimulaed frizzled-2 (unknown origin) expressed in human HEK293superTOP flash cells at 1 nM incubated for 24 hrs by luciferase reporter gene assay (reference value: 0%); format: functional, cell-based; settings: HEK293, filed as antagonist
# [7] = molecular target: Frizzled-2 (Homo sapiens) (UniProt Q14332); assay: Antagonist activity at Wnt3a-stimulated frizzled-2 (unknown origin) expressed in human HEK293superTOP flash cells at 10 nM incubated for 24 hrs by luciferase reporter gene assay; format: functional, cell-based; settings: HEK293
# [8] = molecular target: Frizzled-1 (Homo sapiens) (UniProt Q9UP38); assay: Antagonist activity at Wnt3a-stimulated frizzled-1 (unknown origin) expressed in human HEK293superTOP flash cells at 10 nM incubated for 24 hrs by luciferase reporter gene assay; format: functional, cell-based; settings: HEK293
# [9] = molecular target: Frizzled-2 (Homo sapiens) (UniProt Q14332); assay: Antagonist activity at Wnt3a-stimulated frizzled-2 (unknown origin) expressed in human HEK293superTOP flash cells incubated for 24 hrs by luciferase reporter gene assay; format: functional, cell-based; settings: HEK293
# [10] = molecular target: Frizzled-1 (Homo sapiens) (UniProt Q9UP38); assay: Antagonist activity at Wnt3a-stimulated frizzled-1 (unknown origin) expressed in human HEK293superTOP flash cells incubated for 24 hrs by luciferase reporter gene assay; format: functional, cell-based; settings: HEK293
# [11] = molecular target: Frizzled-2 (Homo sapiens) (UniProt Q14332); assay: Agonist activity at frizzled-2 (unknown origin) expressed in human HEK293superTOP flash cells by luciferase reporter gene assay; format: functional, cell-based; settings: HEK293
# [12] = molecular target: Frizzled-1 (Homo sapiens) (UniProt Q9UP38); assay: Agonist activity at frizzled-1 (unknown origin) expressed in human HEK293superTOP flash cells by luciferase reporter gene assay; format: functional, cell-based; settings: HEK293
# Frizzled-2 (Rattus norvegicus), sequence (Q08464 29-570 limits assumed): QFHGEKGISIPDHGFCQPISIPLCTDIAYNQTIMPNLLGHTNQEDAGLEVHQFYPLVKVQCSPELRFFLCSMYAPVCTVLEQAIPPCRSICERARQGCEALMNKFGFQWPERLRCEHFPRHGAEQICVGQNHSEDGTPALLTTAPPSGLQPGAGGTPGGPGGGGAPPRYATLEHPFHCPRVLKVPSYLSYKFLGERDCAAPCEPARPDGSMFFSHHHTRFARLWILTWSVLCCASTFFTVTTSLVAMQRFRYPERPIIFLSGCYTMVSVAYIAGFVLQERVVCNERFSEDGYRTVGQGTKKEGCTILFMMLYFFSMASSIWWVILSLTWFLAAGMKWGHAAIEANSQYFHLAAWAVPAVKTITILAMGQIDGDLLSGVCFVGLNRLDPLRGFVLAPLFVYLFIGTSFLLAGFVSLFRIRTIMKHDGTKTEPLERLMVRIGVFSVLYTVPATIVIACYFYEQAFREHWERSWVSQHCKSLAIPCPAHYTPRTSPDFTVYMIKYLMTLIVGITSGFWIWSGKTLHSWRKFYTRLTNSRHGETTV
# Frizzled-2 (Homo sapiens), sequence (Q14332 24-565 limits assumed): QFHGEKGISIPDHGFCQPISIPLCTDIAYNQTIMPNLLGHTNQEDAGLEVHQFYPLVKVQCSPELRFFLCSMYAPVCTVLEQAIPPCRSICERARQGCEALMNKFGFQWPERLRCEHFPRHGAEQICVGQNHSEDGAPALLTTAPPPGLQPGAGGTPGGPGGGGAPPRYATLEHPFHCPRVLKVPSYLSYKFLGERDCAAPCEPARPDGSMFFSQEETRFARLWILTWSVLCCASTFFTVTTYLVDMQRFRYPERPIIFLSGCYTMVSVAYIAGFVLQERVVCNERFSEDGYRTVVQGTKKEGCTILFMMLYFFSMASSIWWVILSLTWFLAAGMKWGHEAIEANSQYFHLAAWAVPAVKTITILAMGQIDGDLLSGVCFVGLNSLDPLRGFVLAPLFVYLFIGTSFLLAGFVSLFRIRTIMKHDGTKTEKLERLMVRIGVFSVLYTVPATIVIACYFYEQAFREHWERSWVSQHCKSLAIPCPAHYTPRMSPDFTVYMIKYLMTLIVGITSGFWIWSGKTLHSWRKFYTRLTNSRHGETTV
# Frizzled-1 (Homo sapiens), sequence (Q9UP38 70-647 limits assumed): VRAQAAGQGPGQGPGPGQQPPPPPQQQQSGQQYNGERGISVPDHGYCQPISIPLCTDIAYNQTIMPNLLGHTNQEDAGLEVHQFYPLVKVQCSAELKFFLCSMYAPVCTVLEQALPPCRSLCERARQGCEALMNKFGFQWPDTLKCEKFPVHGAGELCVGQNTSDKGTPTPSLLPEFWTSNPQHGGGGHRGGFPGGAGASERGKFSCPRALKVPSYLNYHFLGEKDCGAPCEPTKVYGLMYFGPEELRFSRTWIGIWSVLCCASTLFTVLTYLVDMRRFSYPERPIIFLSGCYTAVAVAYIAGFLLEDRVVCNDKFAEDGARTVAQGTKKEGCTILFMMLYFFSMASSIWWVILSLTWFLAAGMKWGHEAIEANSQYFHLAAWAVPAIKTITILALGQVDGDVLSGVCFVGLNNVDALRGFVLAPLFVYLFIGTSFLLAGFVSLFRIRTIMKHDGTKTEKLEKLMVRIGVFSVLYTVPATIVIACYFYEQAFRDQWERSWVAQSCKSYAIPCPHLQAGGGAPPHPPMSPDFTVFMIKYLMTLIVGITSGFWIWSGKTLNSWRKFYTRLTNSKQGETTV
# Frizzled-1 (Rattus norvegicus), sequence (Q08463 whole entry): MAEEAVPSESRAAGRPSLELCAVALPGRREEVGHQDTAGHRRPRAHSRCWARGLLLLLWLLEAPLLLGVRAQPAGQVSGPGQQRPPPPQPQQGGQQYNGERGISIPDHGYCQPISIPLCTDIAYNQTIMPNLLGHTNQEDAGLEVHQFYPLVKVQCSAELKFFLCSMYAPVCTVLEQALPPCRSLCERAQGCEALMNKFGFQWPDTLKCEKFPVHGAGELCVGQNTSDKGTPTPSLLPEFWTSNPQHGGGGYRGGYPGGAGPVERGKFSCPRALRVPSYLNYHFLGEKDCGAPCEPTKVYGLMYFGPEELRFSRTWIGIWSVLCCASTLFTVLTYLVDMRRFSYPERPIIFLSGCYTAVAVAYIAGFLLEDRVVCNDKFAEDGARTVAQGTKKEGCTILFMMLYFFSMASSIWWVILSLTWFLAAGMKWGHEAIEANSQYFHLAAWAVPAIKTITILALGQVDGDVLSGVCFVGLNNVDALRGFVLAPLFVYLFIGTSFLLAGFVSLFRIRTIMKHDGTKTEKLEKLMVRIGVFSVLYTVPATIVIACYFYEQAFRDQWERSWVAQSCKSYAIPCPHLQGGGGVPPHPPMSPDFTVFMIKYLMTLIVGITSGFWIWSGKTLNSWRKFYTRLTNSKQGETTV
Compound,inhibition [1],inhibition [2],inhibition [3],inhibition [4],inhibition [5],inhibition [6],inhibition [7],inhibition [8],inhibition [9],inhibition [10],Activity [11],Activity [12]
CC[C@H](C)[C@H](NC(=O)CNC(=O)[C@H](Cc1cnc[nH]1)NC(=O)[C@H](CO)NC(=O)[C@H](CO)NC(=O)[C@@H](NC(=O)[C@H](CC(N)=O)NC(=O)[C@@H](N)CS)C(C)C)C(=O)N[C@@H](CC(=O)O)C(=O)NCC(=O)N[C@@H](CS)C(=O)N[C@@H](CC(=O)O)C(=O)N[C@@H](CC(C)C)C(=O)O (H-CNVSSHGIDGCDL-OH),inactive,inactive,inactive,inactive,45.3%,62.4%,inactive,inactive,–,–,–,–
Ac-CNKTSEGMDGAEL-NH2,inactive,inactive,inactive,inactive,67.2%,84.9%,inactive,inactive,–,–,–,–
Ac-DLVYFELSPDFCA-NH2,–,–,–,–,–,–,–,–,inactive,inactive,inactive,inactive
Ac-GSKGTQGRACN-NH2,–,–,–,–,–,–,–,–,inactive,inactive,inactive,inactive

# Continued, values first:
inhibition [1],inhibition [2],inhibition [3],inhibition [4],inhibition [5],inhibition [6],inhibition [7],inhibition [8],inhibition [9],inhibition [10],Activity [11],Activity [12],Compound
inactive,inactive,inactive,inactive,70.8%,82.6%,inactive,inactive,–,–,–,–,Ac-ANKTSEGMDGCEL-NH2
–,–,–,–,–,–,–,–,inactive,inactive,inactive,inactive,Ac-GDWEWGECSDNI-NH2
–,–,–,–,–,–,–,–,inactive,inactive,inactive,inactive,Ac-MNRHNNEAGR-NH2
